# Experimental data: patent US5041567A, “Antibacterial monic acid derivatives” (Beecham Group plc, priority 1982, dated 1991)
# Where two headings read alike, the source gives them in different places.
# Experiments:
# Strep. uberis SPU1 = test: MIC against veterinary bacteria in vitro; details: Streptococcus uberis, SPU1, 18 h
# Description: (§1) The activity of the compounds of the Examples against various veterinarily important bacteria, was assayed in vitro using two-fold serial dilutions in Diagnostic Sensitivity Test Agar inoculated with 10^4 organisms.
# Staph. aureus Oxford = test: MIC against veterinary bacteria in vitro; details: Staphylococcus aureus, 18 h
# Description: as §1
# M. suipneumoniae LABER = test: MIC against mycoplasma in vitro; format: cell-based; details: Mesomycoplasma hyopneumoniae, 144 h
# [1] = test system: Staph. aureus B4 (pen. resistant); test: MIC against veterinary bacteria in vitro; details: Staphylococcus aureus, 18 h
# Description: as §1
# Strep. faecalis I = test: MIC against human bacteria in vitro; format: cell-based; details: Enterococcus faecalis
# [2] = test system: M. suipneumoniae J2206/183^b; test: MIC against mycoplasma in vitro; format: cell-based; details: Mesomycoplasma hyopneumoniae, 144 h
# K. aerogenes A = test: MIC against human bacteria in vitro; format: cell-based; details: Klebsiella aerogenes
# Bord. bronchiseptica B08 = test: MIC against veterinary bacteria in vitro; details: Bordetella bronchiseptica, B08, 18 h
# Description: as §1
# M. hyorhinis ATCC 23234 = test: MIC against mycoplasma in vitro; format: cell-based; details: Mesomycoplasma hyorhinis, ATCC23234, 144 h; M. hyorhinis ATCC 23234; 6 days, 37° C.; read-out: MIC
# Bacillus subtilis 6633 = test: MIC against human bacteria in vitro; format: cell-based
# [3] = test system: Corynebacterium pyogenes CY1; test: MIC against veterinary bacteria in vitro; details: CY1, 18 h
# Description: as §1
# M. pneumoniae ATCC 15492 = test: MIC against mycoplasma in vitro; format: cell-based; details: Mycoplasmoides pneumoniae, ATCC15492, 144 h
# [4] = test system: M. hyosynoviae ATCC 25591; test: MIC against mycoplasma in vitro; format: cell-based; details: 144 h
# [5] = test system: Haemophilus influenzae Q1; test: MIC against human bacteria in vitro; format: cell-based
# Bord. bronchiseptica B09 = test: MIC against veterinary bacteria in vitro; details: Bordetella bronchiseptica, B09, 18 h
# Description: as §1
# M. suipneumoniae HK(2) = test: MIC against mycoplasma in vitro; format: cell-based; details: Mesomycoplasma hyopneumoniae, 144 h
# Strep. spp. 64/848-C = test: MIC against human bacteria in vitro; format: cell-based
# Strep. dysgalactiae SPD1 = test: MIC against veterinary bacteria in vitro; details: Streptococcus dysgalactiae, SPD1, 18 h
# Description: as §1
# S. typhimurium S18 = test: MIC against veterinary bacteria in vitro; details: Salmonella enterica, TYPHIMURIUM, 18 h
# Description: as §1
# E. coli ESS = test: MIC against human bacteria in vitro; format: cell-based; details: Escherichia coli
# M. bovis NCTC 10131 = test: microbe, parasite or virus in culture; format: cell-based; details: NCTC10131, 144 h
# [6] = test system: Pasteurella multocida 1633; test: MIC against human bacteria in vitro; format: cell-based
# [7] = test system: Erysipelothrix rhusiopathiae NCTC 8163; test: MIC against veterinary bacteria in vitro; details: Erysipelothrix rhusiopathiae, NCTC8163, 18 h
# Description: as §1
# [8] = M. suipneumoniae LABER, 6 days, 37° C., read-out: MIC
# [9] = M. suipneumoniae J2206/183^b, 6 days, 37° C., read-out: MIC
# [10] = M. pneumoniae ATCC 15492, 6 days, 37° C., read-out: MIC
# [11] = M. hyosynoviae ATCC 25591, 6 days, 37° C., read-out: MIC
# [12] = Haemophilus influenzae, Q1, 18 h
# [13] = M. suipneumoniae HK(2), 6 days, 37° C., read-out: MIC
# [14] = Pasteurella multocida, 1633, 18 h
# [15] = Strep. faecalis I, 5% chocolated horse blood agar, 18 hours, read-out: MIC
# [16] = K. aerogenes A, 5% chocolated horse blood agar, 18 hours, read-out: MIC
# [17] = Bacillus subtilis 6633, 5% chocolated horse blood agar, 18 hours, read-out: MIC
# [18] = Haemophilus influenzae Q1, 5% chocolated horse blood agar, 18 hours, read-out: MIC
# [19] = Strep. spp. 64/848-C, 5% chocolated horse blood agar, 18 hours, read-out: MIC
# [20] = Pasteurella multocida 1633, 5% chocolated horse blood agar, 18 hours, read-out: MIC
# [21] = E. coli ESS, 5% chocolated horse blood agar, 18 hours, read-out: MIC
Structure (SMILES),MIC (Strep. uberis SPU1) [µg/mL],MIC (Staph. aureus Oxford) [µg/mL],MIC (M. suipneumoniae LABER; [8]) [µg/mL],MIC [1] [µg/mL],"MIC [2, 9] [µg/mL]",MIC (Bord. bronchiseptica B08) [µg/mL],MIC (M. hyorhinis ATCC 23234) [µg/mL],MIC [3] [µg/mL],MIC (M. pneumoniae ATCC 15492; [10]) [µg/mL],"MIC [4, 11] [µg/mL]",MIC (Bord. bronchiseptica B09) [µg/mL],MIC (M. suipneumoniae HK(2); [13]) [µg/mL],MIC (Strep. dysgalactiae SPD1) [µg/mL],MIC (S. typhimurium S18) [µg/mL],MIC (E. coli ESS; 18 h) [µg/mL],MIC (M. bovis NCTC 10131) [µg/mL],MIC [7] [µg/mL],MIC (Strep. faecalis I; [15]) [µg/mL],MIC (K. aerogenes A; [16]) [µg/mL],MIC (Bacillus subtilis 6633; [17]) [µg/mL],also measured
"COC(=O)CCCCCCCc1cnc(/C=C(\C)C[C@@H]2OC[C@H](C[C@@H]3O[C@H]3[C@@H](C)[C@H](C)O)[C@@H](O)[C@H]2O)o1 [Example 7, 5-(7-Methoxycarbonylheptyl)-2-(1-normon-2-yl)oxazole A]",1.25,5,10,5,> 10,40,10,> 80,> 10,5,40,> 10,2.5,> 80,0.5,0.1,> 80,,,,"MIC (Strep. faecalis I; 18 h): > 100 µg/mL; MIC (K. aerogenes A; 18 h): > 100 µg/mL; MIC (Bacillus subtilis 6633; Bacillus subtilis, 6633, 18 h): 2.5 µg/mL; MIC [5, 12]: 0.5 µg/mL; MIC (Strep. spp. 64/848-C; 18 h): 10 µg/mL; MIC [6, 14]: 2.5 µg/mL"
"C/C(=C\c1ncc(-c2ccccc2)s1)C[C@@H]1OC[C@H](C[C@@H]2O[C@H]2[C@@H](C)[C@H](C)O)[C@@H](O)[C@H]1O [Example 29, 2-(1-Normon-2-yl)-5-phenylthiazole A]",5,10,10,10,> 10,> 80,> 10,> 80,> 10,> 10,> 80,> 10,20,> 80,> 100,0.5,> 80,> 100,> 100,50,"MIC [5, 18]: 50 µg/mL; MIC (Strep. spp. 64/848-C; [19]): 25 µg/mL; MIC [6, 20]: > 100 µg/mL"
"CSc1ccc(-c2cnc(/C=C(\C)C[C@@H]3OC[C@H](C[C@@H]4O[C@H]4[C@@H](C)[C@H](C)O)[C@@H](O)[C@H]3O)o2)cc1 [Example 9, 5-p-methylthiophenyl-2-(1-normon-2-yl)oxazole A]",0.16,0.625,,1.25,,40,0.5,80,,,40,,0.625,> 80,5,0.05,80,,,,"MIC (M. suipneumoniae LABER): 0.5 µg/mL; MIC (Strep. faecalis I; 18 h): > 100 µg/mL; MIC [2]: 0.5 µg/mL; MIC (K. aerogenes A; 18 h): > 100 µg/mL; MIC (Bacillus subtilis 6633; Bacillus subtilis, 6633, 18 h): 1 µg/mL; MIC (M. pneumoniae ATCC 15492): 1 µg/mL; MIC [4]: 0.5 µg/mL; MIC [5, 12]: 5 µg/mL; MIC (M. suipneumoniae HK(2)): 0.5 µg/mL; MIC (Strep. spp. 64/848-C; 18 h): 5 µg/mL; MIC [6, 14]: 5 µg/mL"
"C/C(=C\c1ncc(CCCCCCCC(=O)O)o1)C[C@@H]1OC[C@H](C[C@@H]2O[C@H]2[C@@H](C)[C@H](C)O)[C@@H](O)[C@H]1O [Example 12, Sodium 8-[2-(1-normon-2-yl)-5-oxazolyl]-octanoate A]",0.625,0.625,> 10,2.5,> 10,> 40,5,> 40,> 10,5,20,> 10,0.625,> 40,,0.05,> 40,> 16,> 16,4,"MIC [5, 18]: 1 µg/mL; MIC (Strep. spp. 64/848-C; [19]): 4 µg/mL; MIC (E. coli ESS; [21]): > 16 µg/mL; MIC [6, 20]: 4 µg/mL"
"C/C(=C\c1ncc(-c2ccc([N+](=O)[O-])cc2)o1)C[C@@H]1OC[C@H](C[C@@H]2O[C@H]2[C@@H](C)[C@H](C)O)[C@@H](O)[C@H]1O [Example 3, 5-p-nitro-phenyl-2-(1-normon-2-yl)-oxazole A]",0.039,0.312,0.1,0.312,0.25,40,0.1,80,0.5,0.25,5,0.25,0.312,> 80,,0.025,> 80,50,100,0.5,"MIC [5, 18]: 0.1 µg/mL; MIC (Strep. spp. 64/848-C; [19]): 0.5 µg/mL; MIC (E. coli ESS; [21]): 0.5 µg/mL; MIC [6, 20]: 0.5 µg/mL"
